ChEMBL document CHEMBL4825755 (J Med Chem, 2021)
In brackets after ≈: the same amount, converted by molar mass. Activity calls are given as the source filed them. The calls are words filed in the database; no cut-off is given here.

Key:
[1] = Fraction unbound in human blood; format: ADME, tissue-based
[2] = Volume of distribution at steady state in Wistar Han rat at 1 mg/kg, po administered via gavage or 1 mg/kg, iv administered as infusion for 1 hr by RP LC-MS/MS analysis; format: ADME, organism-based; details: in vivo, read-out: Vdss
[3] = molecular target: PI3-kinase p110-delta/p85-alpha (Homo sapiens, UniProt O00329); test: Inhibition of recombinant human N-terminal His6-tagged full length P110delta/full length untagged human p85alpha expressed in baculovirus infected Sf21 insect cells using PIP2 as substrate preincubated for 15 mins followed by substrate addition and measured after 60 mins by HTRF assay
Mus musculus = test: Antiinflammatory activity in house dust-mite-induced Balb/c mouse model of inflammation assessed as reduction in BAL IL-5 level at 0.1 to 10 mg/kg administered 7 days prior to HDM re-challenge and measured 4 hrs post-HDM re-challenge; format: functional, organism-based; details: dose 0.1-10 mg/kg, time 7.0 day
[4] = AUC in Wistar Han rat at 1 mg/kg, po administered via gavage or 1 mg/kg, iv administered as infusion for 1 hr by RP LC-MS/MS analysis; format: ADME, organism-based; parameters: dose 1 mg/kg; details: in vivo
[5] = molecular target: Phosphatidylinositol 4,5-bisphosphate 3-kinase catalytic subunit gamma isoform (Homo sapiens, UniProt P48736); test: Inhibition of recombinant human N-terminal His6-tagged full length P120gamma expressed in baculovirus infected Sf21 insect cells using PIP2 as substrate preincubated for 15 mins followed by substrate addition and measured after 60 mins by HTRF assay
[6] = molecular target: PI3-kinase p110-alpha/p85-alpha (Homo sapiens, UniProt P42336); test: Inhibition of recombinant human N-terminal His6-tagged full length P110alpha/full length untagged human p85alpha expressed in baculovirus infected Sf21 insect cells using PIP2 as substrate preincubated for 15 mins followed by substrate addition and measured after 60 mins by HTRF assay
[7] = Genotoxicity in Salmonella typhimurium by Ames test; format: toxicity; details: salmonella enterica subsp. enterica serovar typhimurium
[8] = molecular target: T1, Phosphatidylinositol 4,5-bisphosphate 3-kinase catalytic subunit delta isoform (Homo sapiens, UniProt O00329); test: Inhibition of PI3Kdelta in human whole blood assessed as reduction in cytostim-stimulated IFNgamma production preincubated for 1 hr followed by cytostim stimulation and measured after 20 hrs by electrochemiluminescence assay
T1 sequence (O00329 whole entry): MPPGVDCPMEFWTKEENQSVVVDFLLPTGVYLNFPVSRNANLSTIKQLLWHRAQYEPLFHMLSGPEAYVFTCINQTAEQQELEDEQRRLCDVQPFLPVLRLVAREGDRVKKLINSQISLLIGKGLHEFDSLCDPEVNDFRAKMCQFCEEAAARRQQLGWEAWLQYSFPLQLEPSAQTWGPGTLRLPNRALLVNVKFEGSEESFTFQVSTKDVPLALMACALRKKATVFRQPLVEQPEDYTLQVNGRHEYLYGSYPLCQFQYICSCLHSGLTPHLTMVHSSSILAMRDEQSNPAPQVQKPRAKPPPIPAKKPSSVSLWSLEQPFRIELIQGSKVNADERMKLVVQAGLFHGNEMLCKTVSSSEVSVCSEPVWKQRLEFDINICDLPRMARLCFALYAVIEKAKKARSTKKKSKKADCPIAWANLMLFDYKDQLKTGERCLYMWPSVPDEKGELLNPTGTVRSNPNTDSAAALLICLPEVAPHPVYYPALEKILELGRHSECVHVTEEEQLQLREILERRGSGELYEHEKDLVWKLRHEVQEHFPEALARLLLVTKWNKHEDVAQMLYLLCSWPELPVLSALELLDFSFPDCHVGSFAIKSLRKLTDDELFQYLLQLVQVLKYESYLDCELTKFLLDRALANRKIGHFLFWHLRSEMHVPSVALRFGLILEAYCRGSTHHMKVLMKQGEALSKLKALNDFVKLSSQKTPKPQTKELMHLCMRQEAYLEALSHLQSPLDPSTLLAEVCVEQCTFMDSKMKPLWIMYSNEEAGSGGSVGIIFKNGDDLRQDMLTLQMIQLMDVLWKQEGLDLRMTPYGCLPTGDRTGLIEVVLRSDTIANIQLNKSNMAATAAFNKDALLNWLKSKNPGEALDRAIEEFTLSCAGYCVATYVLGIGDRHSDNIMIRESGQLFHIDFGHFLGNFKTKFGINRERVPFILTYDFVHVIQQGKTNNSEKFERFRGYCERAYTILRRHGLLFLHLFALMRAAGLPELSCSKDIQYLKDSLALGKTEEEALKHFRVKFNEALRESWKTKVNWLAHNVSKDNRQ

in vitro = details: human, pooled liver microsomes
Description: Intrinsic clearance in pooled human liver microsomes at 0.5 uM measured up to 45 mins in presence of NADPH by LC-MS/MS analysis

[9] = Intrinsic clearance in Wistar Han rat liver microsomes at 0.5 uM measured up to 45 mins in presence of NADPH by LC-MS/MS analysis; format: ADME, Microsome; details: read-out: CLH
[10] = Permeability of compound in MDCK cells; format: ADME, cell-based, Canis lupus familiaris; details: dog, read-out: permeability
[11] = Half life in Wistar Han rat at 1 mg/kg, po administered via gavage or 1 mg/kg, iv administered as infusion for 1 hr by RP LC-MS/MS analysis; format: ADME, organism-based; details: in vivo
PI3K p110 beta/p85 alpha = PI3K p110 beta/p85 alpha (Homo sapiens, UniProt P42338); test: Inhibition of recombinant human N-terminal His6-tagged full length P110beta/full length untagged human p85alpha expressed in baculovirus infected Sf21 insect cells using PIP2 as substrate preincubated for 15 mins followed by substrate addition and measured after 60 mins by HTRF assay
[12] = Oral bioavailability in Wistar Han rat at 1 mg/kg administered via gavage by RP LC-MS/MS analysis; format: ADME, organism-based; details: in vivo
Cytochrome P450 3A4 = Cytochrome P450 3A4 (Homo sapiens, UniProt P08684); test: Time-dependent inhibition of CYP3A4 in human liver microsomes using midazolam as substrate; format: ADME
[13] = Solubility in pH 6.5 FaSSIF incubated for 4 hrs using crystalline free base of sample by UV-HPLC method; format: physicochemical
[14] = Lipophilicity, log D of compound by chromatographic method; format: physicochemical
[15] = Fraction unbound in rat blood; format: ADME, tissue-based
[16] = Clearance in Wistar Han rat at 1 mg/kg, po administered via gavage or 1 mg/kg, iv administered as infusion for 1 hr by RP LC-MS/MS analysis; format: ADME, organism-based; details: in vivo
[17] = molecular target: Voltage-gated inwardly rectifying potassium channel KCNH2 (Homo sapiens, UniProt Q12809); test: Inhibition of human ERG
[18] = molecular target: Phosphatidylinositol 3-kinase catalytic subunit type 3 (Homo sapiens, UniProt Q8NEB9); test: Inhibition of VPS34 in human HL-60 cell extract measured after 2 hrs by kinobeads based chemoproteomic competition binding assay; format: tissue-based
[19] = Volume of distribution at steady state in Wistar Han rat at 1 mg/kg, iv administered as infusion for 1 hr by RP LC-MS/MS analysis; format: ADME, organism-based; details: in vivo, read-out: Vdss
[20] = Clearance in Wistar Han rat at 1 mg/kg, iv administered as infusion for 1 hr by RP LC-MS/MS analysis; format: ADME, organism-based; details: in vivo
[21] = Solubility in pH 6.5 FaSSIF incubated for 4 hrs using amorphous form of sample by UV-HPLC method; format: physicochemical
[22] = Half life in Wistar Han rat at 1 mg/kg, iv administered as infusion for 1 hr by RP LC-MS/MS analysis; format: ADME, organism-based; details: in vivo
serum albumin = serum albumin (Homo sapiens, UniProt P02768); test: Binding affinity to human serum albumin by HPLC analysis; format: ADME, cell-free; details: read-out: PB (converted)
[23] = molecular target: T1, Phosphatidylinositol 4,5-bisphosphate 3-kinase catalytic subunit delta isoform; test: Inhibition of PI3Kdelta in human HL-60 cell extract measured after 2 hrs by kinobeads based chemoproteomic competition binding assay; format: tissue-based
Homo sapiens = species: Homo sapiens; test: Selectivity ratio of IC50 for inhibition of recombinant human N-terminal His6-tagged full length P110delta/full length untagged human p85alpha expressed in baculovirus infected Sf21 insect cells to IC50 for inhibition of PI3Kdelta in human whole blood

PI3K p110 beta/p85 alpha, sequence (P27986 whole entry): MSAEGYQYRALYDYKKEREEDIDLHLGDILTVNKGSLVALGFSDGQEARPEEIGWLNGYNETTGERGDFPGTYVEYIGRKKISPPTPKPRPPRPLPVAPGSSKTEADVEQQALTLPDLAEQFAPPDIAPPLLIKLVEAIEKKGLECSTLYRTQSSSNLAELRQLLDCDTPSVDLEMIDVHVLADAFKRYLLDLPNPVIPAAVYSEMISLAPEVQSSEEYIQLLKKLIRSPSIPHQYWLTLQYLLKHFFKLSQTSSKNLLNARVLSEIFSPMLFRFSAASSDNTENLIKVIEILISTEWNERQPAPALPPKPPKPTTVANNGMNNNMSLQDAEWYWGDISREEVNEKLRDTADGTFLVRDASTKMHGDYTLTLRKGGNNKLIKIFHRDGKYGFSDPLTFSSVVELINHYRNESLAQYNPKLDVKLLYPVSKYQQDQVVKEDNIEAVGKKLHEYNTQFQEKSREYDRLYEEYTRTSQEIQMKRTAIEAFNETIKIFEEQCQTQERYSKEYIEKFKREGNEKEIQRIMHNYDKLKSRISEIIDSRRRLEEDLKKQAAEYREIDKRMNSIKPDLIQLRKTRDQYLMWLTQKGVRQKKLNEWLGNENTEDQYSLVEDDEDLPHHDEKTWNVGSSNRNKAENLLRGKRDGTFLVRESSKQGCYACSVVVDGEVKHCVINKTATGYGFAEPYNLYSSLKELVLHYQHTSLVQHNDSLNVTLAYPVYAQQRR
PI3K p110 beta/p85 alpha, sequence (P42338 whole entry): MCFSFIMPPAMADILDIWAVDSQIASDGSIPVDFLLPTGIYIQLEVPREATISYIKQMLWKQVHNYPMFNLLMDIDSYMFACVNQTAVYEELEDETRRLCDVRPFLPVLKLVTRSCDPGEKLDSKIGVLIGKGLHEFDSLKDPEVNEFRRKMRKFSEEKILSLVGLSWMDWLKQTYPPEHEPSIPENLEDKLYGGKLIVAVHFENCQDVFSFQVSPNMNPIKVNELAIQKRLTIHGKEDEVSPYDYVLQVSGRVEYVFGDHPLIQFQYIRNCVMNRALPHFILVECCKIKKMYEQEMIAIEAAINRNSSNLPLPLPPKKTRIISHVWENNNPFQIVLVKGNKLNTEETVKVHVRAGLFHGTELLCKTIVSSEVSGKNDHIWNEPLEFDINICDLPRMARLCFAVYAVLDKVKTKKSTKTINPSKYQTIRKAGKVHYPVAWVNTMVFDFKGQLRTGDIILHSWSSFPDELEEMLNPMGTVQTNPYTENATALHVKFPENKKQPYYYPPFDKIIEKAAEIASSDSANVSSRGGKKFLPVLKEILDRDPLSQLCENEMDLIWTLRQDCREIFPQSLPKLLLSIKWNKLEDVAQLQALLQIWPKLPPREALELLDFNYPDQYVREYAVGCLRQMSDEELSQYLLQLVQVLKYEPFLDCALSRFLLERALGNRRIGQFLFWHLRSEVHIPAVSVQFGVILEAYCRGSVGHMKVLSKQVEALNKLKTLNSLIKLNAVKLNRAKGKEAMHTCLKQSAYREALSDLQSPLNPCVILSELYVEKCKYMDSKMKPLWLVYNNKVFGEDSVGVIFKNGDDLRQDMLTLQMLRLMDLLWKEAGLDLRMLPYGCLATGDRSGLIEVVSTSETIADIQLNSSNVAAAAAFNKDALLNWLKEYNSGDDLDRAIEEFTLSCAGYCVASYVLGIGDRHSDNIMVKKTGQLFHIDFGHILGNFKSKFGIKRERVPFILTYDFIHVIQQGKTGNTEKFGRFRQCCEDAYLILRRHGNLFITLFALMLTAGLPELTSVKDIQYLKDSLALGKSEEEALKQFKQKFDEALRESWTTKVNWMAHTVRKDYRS
PI3-kinase p110-alpha/p85-alpha, sequence (P27986 whole entry): as the sequence (P27986 whole entry) above
PI3-kinase p110-alpha/p85-alpha, sequence (P42336 whole entry): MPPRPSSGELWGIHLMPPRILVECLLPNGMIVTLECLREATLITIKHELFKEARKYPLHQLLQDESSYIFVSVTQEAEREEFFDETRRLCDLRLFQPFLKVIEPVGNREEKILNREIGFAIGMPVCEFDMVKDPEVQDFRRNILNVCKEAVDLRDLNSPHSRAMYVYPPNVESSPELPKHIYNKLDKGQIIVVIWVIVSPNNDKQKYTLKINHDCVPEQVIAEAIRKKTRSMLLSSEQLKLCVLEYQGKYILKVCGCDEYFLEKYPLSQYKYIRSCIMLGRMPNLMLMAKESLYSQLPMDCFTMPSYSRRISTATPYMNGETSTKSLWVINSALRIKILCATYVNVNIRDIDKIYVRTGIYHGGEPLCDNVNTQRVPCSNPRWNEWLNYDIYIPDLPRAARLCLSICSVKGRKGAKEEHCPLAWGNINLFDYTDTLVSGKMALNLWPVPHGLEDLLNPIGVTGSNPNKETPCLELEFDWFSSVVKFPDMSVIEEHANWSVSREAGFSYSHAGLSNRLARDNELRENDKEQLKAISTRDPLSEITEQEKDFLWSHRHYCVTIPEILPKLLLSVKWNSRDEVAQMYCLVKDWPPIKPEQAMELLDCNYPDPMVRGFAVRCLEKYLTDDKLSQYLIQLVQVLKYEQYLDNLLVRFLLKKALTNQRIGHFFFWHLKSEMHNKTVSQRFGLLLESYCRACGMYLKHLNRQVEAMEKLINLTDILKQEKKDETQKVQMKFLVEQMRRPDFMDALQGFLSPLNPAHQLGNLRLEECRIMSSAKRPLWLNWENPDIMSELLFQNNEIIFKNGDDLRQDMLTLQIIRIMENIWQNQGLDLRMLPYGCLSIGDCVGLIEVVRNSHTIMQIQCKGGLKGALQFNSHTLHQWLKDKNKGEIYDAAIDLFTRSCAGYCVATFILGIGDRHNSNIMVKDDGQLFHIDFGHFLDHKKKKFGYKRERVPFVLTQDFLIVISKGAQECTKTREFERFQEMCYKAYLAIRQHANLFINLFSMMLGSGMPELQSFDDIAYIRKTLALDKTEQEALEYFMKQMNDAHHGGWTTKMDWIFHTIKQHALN
PI3-kinase p110-delta/p85-alpha, sequence (P27986 whole entry, one chain of several): as the sequence (P27986 whole entry) above
Phosphatidylinositol 4,5-bisphosphate 3-kinase catalytic subunit gamma isoform, sequence (P48736 whole entry, canonical isoform): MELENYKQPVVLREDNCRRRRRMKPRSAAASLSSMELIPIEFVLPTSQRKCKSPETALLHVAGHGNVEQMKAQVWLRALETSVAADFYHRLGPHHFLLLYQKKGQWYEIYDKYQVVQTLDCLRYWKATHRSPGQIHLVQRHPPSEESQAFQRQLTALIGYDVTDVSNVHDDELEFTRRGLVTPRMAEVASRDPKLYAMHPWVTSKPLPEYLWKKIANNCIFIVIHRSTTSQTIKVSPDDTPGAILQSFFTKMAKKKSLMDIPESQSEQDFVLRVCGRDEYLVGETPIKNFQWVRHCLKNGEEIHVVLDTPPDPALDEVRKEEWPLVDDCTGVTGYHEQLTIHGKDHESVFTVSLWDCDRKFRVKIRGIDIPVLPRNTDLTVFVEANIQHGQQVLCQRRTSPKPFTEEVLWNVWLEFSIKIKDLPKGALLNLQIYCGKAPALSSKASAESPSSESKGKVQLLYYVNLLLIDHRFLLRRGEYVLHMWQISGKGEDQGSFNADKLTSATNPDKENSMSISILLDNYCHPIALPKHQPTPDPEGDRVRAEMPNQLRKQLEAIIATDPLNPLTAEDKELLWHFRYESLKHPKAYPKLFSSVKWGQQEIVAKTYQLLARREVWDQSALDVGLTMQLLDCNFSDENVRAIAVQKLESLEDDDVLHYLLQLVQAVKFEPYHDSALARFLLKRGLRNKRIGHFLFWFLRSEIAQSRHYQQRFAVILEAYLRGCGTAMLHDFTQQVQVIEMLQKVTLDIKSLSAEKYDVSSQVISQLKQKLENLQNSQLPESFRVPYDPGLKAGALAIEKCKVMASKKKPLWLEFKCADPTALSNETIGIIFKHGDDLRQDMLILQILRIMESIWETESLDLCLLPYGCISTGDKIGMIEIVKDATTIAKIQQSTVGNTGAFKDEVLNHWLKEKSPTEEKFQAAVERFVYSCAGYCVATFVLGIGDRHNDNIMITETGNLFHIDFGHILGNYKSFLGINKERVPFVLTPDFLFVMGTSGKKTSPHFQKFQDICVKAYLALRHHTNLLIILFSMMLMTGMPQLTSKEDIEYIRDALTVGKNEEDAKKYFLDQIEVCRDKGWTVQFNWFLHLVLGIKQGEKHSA
serum albumin, sequence (P02768 whole entry, canonical isoform): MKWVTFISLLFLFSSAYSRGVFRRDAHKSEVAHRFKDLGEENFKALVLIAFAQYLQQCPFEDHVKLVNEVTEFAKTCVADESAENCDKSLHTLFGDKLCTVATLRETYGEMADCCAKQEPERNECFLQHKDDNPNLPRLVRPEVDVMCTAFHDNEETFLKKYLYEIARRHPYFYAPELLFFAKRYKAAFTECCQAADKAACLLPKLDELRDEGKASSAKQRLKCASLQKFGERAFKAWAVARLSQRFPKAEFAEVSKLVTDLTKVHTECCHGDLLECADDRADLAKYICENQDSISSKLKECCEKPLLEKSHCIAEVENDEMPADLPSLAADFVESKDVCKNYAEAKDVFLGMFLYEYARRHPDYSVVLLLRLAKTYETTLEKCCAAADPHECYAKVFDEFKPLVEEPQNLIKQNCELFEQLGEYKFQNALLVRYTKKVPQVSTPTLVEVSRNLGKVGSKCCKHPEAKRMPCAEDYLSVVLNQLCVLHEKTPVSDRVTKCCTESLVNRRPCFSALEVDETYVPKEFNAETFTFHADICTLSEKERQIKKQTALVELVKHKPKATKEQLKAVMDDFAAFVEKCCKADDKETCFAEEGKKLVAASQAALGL

Row | Compound | IC50 [3] | Ki [3] | IC50 [5] | IC50 [6] | IC50 [8] | CLint scaled at 0.75 h, 0.5 µM (in vitro) | CLint scaled at 0.5 µM [9] | IC50 (PI3K p110 beta/p85 alpha) | chromatographic logD [14] | other results
1 | COc1ncc(N2CCOCC2)cc1S(=O)(=O)Nc1ccnc(-c2ccc(CN3CCN(C(C)C)CC3)cc2F)c1 | 0.794 nM | 0.0126 nM | 2000 nM | 1000 nM | 6.31 nM | < 0.4 mL/min/kg | < 0.46 mL/min/kg | 5010 nM | 1.9 | fraction unbound [1]: 0.132; Vd [2]: 0.5 L/kg; Activity (Mus musculus): Active; AUC [4]: 2020 ng·h/mL; Activity [7]: Non-Toxic; Papp [10]: 2.3 ×10⁻⁶ cm/s; half-life [11]: 2.6 h; bioavailability [12]: 46%; TDI (Cytochrome P450 3A4): Not Active; solubility thermodynamic at 4 h [13]: 899 µg/mL (≈ 1540 µM); fraction unbound [15]: 0.021; clearance [16]: 3.8 mL/min/kg
2 | COc1ncc(C2=CCOCC2)cc1S(=O)(=O)Nc1cncc(C#CCN2CCN(C(C)C)CC2)c1 | 6.31 nM |  | 25100 nM | 5010 nM | 50.1 nM | < 0.4 mL/min/kg | 0.54 mL/min/kg | 5010 nM | 1.8 | IC50 [17]: > 50100 nM; IC50 [18]: 100 nM; Vd [19]: 0.3 L/kg; clearance [20]: 8.6 mL/min/kg; solubility at 4 h [21]: > 1000 µg/mL; half-life [22]: 1 h; fraction unbound (serum albumin): 0.17; IC50 [23]: 1.58 nM
3 | COc1ncc(N2CCOCC2)cc1S(=O)(=O)Nc1cncc(-c2ccc(CN3CCCC3)cc2F)c1 | 3.16 nM |  | 2510 nM | 1000 nM | 20 nM | < 0.4 mL/min/kg | < 0.46 mL/min/kg | 1580 nM | 2.4 | Vd [19]: 0.6 L/kg; clearance [20]: 8.8 mL/min/kg; half-life [22]: 0.53 h
4 | COc1ncc(C2=CCOCC2)cc1S(=O)(=O)Nc1cncc(-c2ccc(CN3CCN(C(C)C)CC3)cc2)c1 | 0.316 nM | 0.01 nM | 2510 nM | 398 nM | 12.6 nM | 2.28 mL/min/kg | 0.61 mL/min/kg | 794 nM | 2.9 | 
5 | COc1ncc(C2=CCOCC2)cc1S(=O)(=O)Nc1cncc(-c2cccc(CN3CCCC3)c2)c1 | 6.31 nM |  | 3980 nM | 5010 nM | 200 nM | 0.71 mL/min/kg | 1.1 mL/min/kg | 794 nM | 2.4 | 
6 | COc1ncc(N2CCOCC2)cc1S(=O)(=O)Nc1cncc(-c2ccc(CN3CCN(C(C)C)CC3)cc2)c1 | 2.51 nM | 0.0794 nM | 7940 nM | 1260 nM | 20 nM | 0.71 mL/min/kg | < 0.46 mL/min/kg | 2510 nM | 2.3 | 
7 | COc1ncc(C2=CCOCC2)cc1S(=O)(=O)Nc1cncc(-c2ccc(CN3C[C@@H](C)N(C)[C@@H](C)C3)cc2)c1 | 0.501 nM | 0.0158 nM | 5010 nM | 316 nM | 1.26 nM | 3.04 mL/min/kg | 0.87 mL/min/kg | 2510 nM | 3.1 | 
8 | COc1ncc(N2CCOCC2)cc1S(=O)(=O)Nc1cncc(-c2ccc(CN3CCCC3)c(F)c2)c1 | 12.6 nM |  | 10000 nM | 3980 nM | 63.1 nM | < 0.4 mL/min/kg | < 0.46 mL/min/kg | 2510 nM | 2.2 | 
9 | COc1ncc(C2=CCOCC2)cc1S(=O)(=O)Nc1cncc(-c2ccc(CN3CCCC3)cc2)c1 | 5.01 nM |  | 10000 nM | 5010 nM | 31.6 nM | 0.72 mL/min/kg | 0.88 mL/min/kg | 631 nM | 2.2 | 
10 | COc1ncc(C2=CCOCC2)cc1S(=O)(=O)Nc1ccnc(C)c1 | 31.6 nM |  | 3980 nM | 3980 nM | 316 nM |  |  | 316 nM |  | fraction unbound (serum albumin): 0.21; Ratio IC50 (Homo sapiens): 10
11 | COc1ncc(C2=CCOCC2)cc1S(=O)(=O)Nc1cncc(C)c1 | 20 nM |  | 5010 nM | 3160 nM | 3980 nM |  |  | 398 nM |  | fraction unbound (serum albumin): 0.09; Ratio IC50 (Homo sapiens): 100
